# Results taken from patent US11083707B2, “Substituted indoline derivatives as dengue viral replication inhibitors” (JANSSEN PHARMACEUTICALS, INC., priority 2017, dated 2021).
# Where two headings read alike, the source gives them in different places.
# Experiments:
# [1] = tested on: DENV-2 16681 strain; test: DENV-2 antiviral assay (eGFP fluorescence, Vero cells); assay type: cell-based, Dengue virus; settings: DENV-2 16681 eGFP, MOI 0.5, 3 days
# Procedure: The antiviral activity of all the compounds of the invention was tested against the DENV-2 16681 strain which was labeled with enhanced green fluorescent protein (eGPF). The culture medium consists of minimal essential medium supplemented with 2% of heat-inactivated fetal calf serum, 0.04% gentamycin (50 mg/mL) and 2 mM of L-glutamine. Vero cells, obtained from ECACC, were suspended in culture medium and 25 μL was added to 384-well plates (2500 cells/well), which already contain the antiviral compounds. Typically, these plates contain a 5-fold serial dilution of 9 dilution steps of the test compound at 200 times the final concentration in 100% DMSO (200 nL). […] Finally, each plate contains wells which are assigned as virus controls (containing cells and virus in the absence of compound), cell controls (containing cells in the absence of virus and compound) and medium controls (containing medium in the absence of cells, virus and compounds). To the wells assigned as medium control, 25 μL of culture medium was added instead of Vero cells. Once the cells were added to the plates, the plates were incubated for 30 minutes at room temperature to allow the cells to distribute evenly within the wells. Next, the plates were incubated in a fully humidified incubator (37° C., 5% CO2) until the next day. Then, DENV-2 strain 16681, labeled with eGFP, was added at a multiplicity of infection (MOI) of 0.5. Therefore, 15 μL of virus suspension was added to all the wells containing test compound and to the wells assigned as virus control. In parallel, 15 μL of culture medium was added to the medium and cell controls. Next, the plates were incubated for 3 days in a fully humidified incubator (37° C., 5% CO2). At the day of the read out, the eGFP fluorescence was measured using an automated fluorescence microscope at 488 nm (blue laser). Using an in-house LIMS system, inhibition dose response curves for each compound were calculated and the half maximal effective concentration (EC50) was determined. Therefore, the percent inhibition (I) for every test concentration is calculated using the following formula: I=100*(ST-SCC)/(SVC-SCC), ST, SCC and SVC are the amount of eGFP signal in the test compound, cell control and virus control wells, respectively. The EC50 represents the concentration of a compound at which the virus replication is inhibited with 50%, as measured by a 50% reduction of the eGFP fluorescent intensity compared to the virus control. The EC50 is calculated using linear interpolation (Table 1).
# [2] = tested on: DENV-1 strain TC974#666; test: Tetravalent RT-qPCR assay Protocol A, serotype 1; assay type: cell-based; settings: Dengue virus, DENV1, 72 h; RT-qPCR serotype 1 TC974#666, Vero cells, day 3
# Procedure: (§1) The antiviral activity of the compounds of the invention was tested against DENV-1 strain TC974#666 (NCPV), DENV-2 strain 16681, DENV-3 strain H87 (NCPV) and DENV-4 strain H241 (NCPV) in a RT-qPCR assay. Therefore, Vero cells were infected with either DENV-1, or -2, or -3, or -4 in the presence or absence of test compounds. At day 3 post-infection, the cells were lysed and cell lysates were used to prepare cDNA of both a viral target (the 3′UTR of DENV; Table 2) and a cellular reference gene (β-actin, Table 2). Subsequently, a duplex real time PCR was performed on a Lightcycler480 instrument. The generated Cp value is inversely proportional to the amount of RNA expression of these targets. Inhibition of DENV replication by a test compound results in a shift of Cp's for the 3′UTR gene. On the other hand, if a test compound is toxic to the cells, a similar effect on β-actin expression will be observed. The comparative ΔΔCp method is used to calculate EC50, which is based on the relative gene expression of the target gene (3′UTR) normalized with the cellular housekeeping gene (β-actin). In addition, CC50 values are determined based on the Cp values acquired for the housekeeping gene β-actin.
# (§2) The culture medium consisted of minimal essential medium supplemented with 2% of heat-inactivated fetal calf serum, 0.04% gentamycin (50 mg/mL) and 2 mM of L-glutamine. Vero cells, obtained from ECACC, were suspended in culture medium and 75 μL/well was added in 96-well plates (10000 cells/well), which already contain the antiviral compounds. […] In addition, each plate contains wells which are assigned as virus controls (containing cells and virus in the absence of compound) and cell controls (containing cells in the absence of virus and compound). Once the cells were added in the plates, the plates were incubated in a fully humidified incubator (37° C., 5% CO2) until the next day. Dengue viruses serotype-1, 2, 3 and 4 were diluted in order to obtain a Cp of ˜22-24 in the assay. Therefore, 25 μL of virus suspension was added to all the wells containing test compound and to the wells assigned as virus control. In parallel, 25 μL of culture medium was added to the cell controls. Next, the plates were incubated for 3 days in a fully humidified incubator (37° C., 5% CO2). After 3 days, the supernatant was removed from the wells and the cells were washed twice with ice-cold PBS (˜100 μL). The cell pellets within the 96-well plates were stored at −80° C. for at least 1 day. Next, RNA was extracted using the Cells-to-CT™ lysis kit, according to the manufacturer's guideline (Life Technologies). The cell lysates can be stored at −80° C. or immediately used in the reverse transcription step.
# (§3) In preparation of the reverse transcription step, mix A (table 3A) was prepared and 7.57 μL/well was dispensed in a 96-well plate. After addition of 5 μL of the cell lysates, a five minute denaturation step at 75° C. was performed (table 3B). Afterwards, 7.43 μL of mix B was added (table 3C) and the reverse transcription step was initiated (table 3D) to generate cDNA.
# (§4) Finally, a RT-qPCR mix was prepared, mix C (table 4A), and 22.02 μL/well was dispensed in 96-well LightCycler qPCR plates to which 3 μL of cDNA was added and the qPCR was performed according to the conditions in table 4B on a LightCycler 480.
# (§5) Using the LightCycler software and an in-house LIMS system, dose response curves for each compound were calculated and the half maximal effective concentration (EC50) and the half maximal cytotoxic concentration (CC50) were determined (Tables 5-8).
# [3] = tested on: DENV-2 strain 16681; test: Tetravalent RT-qPCR assay Protocol A, serotype 2; assay type: cell-based; settings: Dengue virus
# Procedure: as §1, §2, §3, §4, §5
# [4] = tested on: DENV-3 strain H87; test: Tetravalent RT-qPCR assay Protocol A, serotype 3; assay type: cell-based; settings: Dengue virus, DENV3, 72 h; RT-qPCR serotype 3 H87, Vero cells, day 3
# Procedure: as §1, §2, §3, §4, §5
# [5] = tested on: DENV-4 strain H241; test: Tetravalent RT-qPCR assay Protocol A, serotype 4; assay type: cell-based; settings: Dengue virus, DENV4, 72 h; RT-qPCR serotype 4 H241, Vero cells, day 3
# Procedure: as §1, §2, §3, §4, §5
# [6] = in vitro; assay type: cell-based; settings: African green monkey
# Procedure: as §1, §2, §3, §4, §5
# [7] = in vitro; settings: African green monkey
# [8] = tested on: Vero cells; settings: African green monkey
# [9] = DENV2, 72 h, RT-qPCR serotype 2 16681, Vero cells, day 3, read-out: EC50
Compound,EC50 [1] [nM],EC50 [2] [nM],"EC50 [3, 9] [nM]",EC50 [4] [nM],EC50 [5] [nM],CC50 at 3 days [6] [nM],CC50 [7] [nM],CC50 [8] [nM],"EC50 ([3]; DENV2, Vero, 72 h) [nM]"
"COc1cc(NC(C(=O)N2CCc3ccc(OC(F)(F)F)cc32)c2ccc(Cl)cc2OCCCC(=O)O)cc(-n2cncn2)c1 (single isomer, unassigned) [Compound 13A]",0.12,0.12,0.057,1.8,10,> 2500,12000,,
"COc1cc(NC(C(=O)N2CCc3ccc(C(F)(F)F)cc32)c2ccc(Cl)cc2OCCO)cc(-n2cncn2)c1 (single isomer, unassigned) [Compound 4B]",1,0.57,0.45,11,76,> 2500,,11000,
"COc1cc(NC(C(=O)N2CCc3cc(F)c(OC(F)(F)F)cc32)c2ccc(Cl)cc2OCCCC(=O)O)cc(-n2cncn2)c1 (single isomer, unassigned) [Compound 15B]",0.13,0.13,,2.8,15,,,11000,0.1
"COc1cc(NC(C(=O)N2CCc3ccc(OC(F)(F)F)cc32)c2ccc(F)cc2OCCO)cc(-n2cncn2)c1 (single isomer, unassigned) [Compound 3B]",0.99,2.4,1.4,23,98,,,8700,
"COc1cc(NC(C(=O)N2CCc3cc(OC)c(C(F)(F)F)cc32)c2ccc(Cl)cc2OCCO)cc(-n2cncn2)c1 (single isomer, unassigned) [Compound 5B]",0.62,2,0.52,15,90,> 2500,,9200,
"COc1cc(NC(C(=O)N2CCc3cc(OC)c(C(F)(F)F)cc32)c2ccc(Cl)cc2OCCCC(=O)O)cc(-n2cncn2)c1 (single isomer, unassigned) [Compound 12A]",1.2,2.1,0.42,36,100,,13000,,
"COc1cc(NC(C(=O)N2CCc3cc(OC)c(C(F)(F)F)cc32)c2ccc(F)cc2OCCO)cc(-n2cncn2)c1 (single isomer, unassigned) [Compound 2B]",1.8,6,2.1,38,150,> 2500,,10000,
"COc1cc(NC(C(=O)N2CCc3c(C)cc(OC(F)(F)F)cc32)c2ccc(Cl)cc2OCCO)cc(-n2cncn2)c1 (single isomer, unassigned) [Compound 10B]",0.25,0.36,0.15,5.9,32,,,11000,
"COc1cc(NC(C(=O)N2CCc3cc(F)c(OC(F)(F)F)cc32)c2ccc(Cl)cc2OCCO)cc(-n2cncn2)c1 (single isomer, unassigned) [Compound 9B]",0.6,0.99,0.47,6.4,87,,,10000,
"COc1cc(NC(C(=O)N2CCc3c(C)cc(OC(F)(F)F)cc32)c2ccc(Cl)cc2OCCCC(=O)O)cc(-n2cncn2)c1 (single isomer, unassigned) [Compound 16B]",0.069,0.092,0.055,0.87,5.3,> 1000,,6200,
"COc1cc(NC(C(=O)N2CCc3ccc(C(F)(F)F)cc32)c2ccc(Cl)cc2OCCCC(=O)O)cc(-n2cncn2)c1 (single isomer, unassigned) [Compound 11B]",0.2,0.095,0.059,6.5,20,> 2500,,12000,
"COc1cc(NC(C(=O)N2CCc3ccc(OC(F)(F)F)cc32)c2ccc(Cl)cc2OCCC(C)(C)C(=O)O)cc(-n2cncn2)c1 (single isomer, unassigned) [Compound 14B]",0.27,0.22,,5.5,23,2300,,9400,0.16
"COc1cc(NC(C(=O)N2CCc3ccc(OC(F)(F)F)cc32)c2ccc(Cl)cc2OCCO)cc(-n2cncn2)c1 (single isomer, unassigned) [Compound 6A]",0.59,0.64,0.49,8.1,60,,8500,,
"COc1cc(NC(C(=O)N2CCc3ccc(C(F)(F)F)cc32)c2ccc(F)cc2OCCO)cc(-n2cncn2)c1 (single isomer, unassigned) [Compound 1B]",2.8,1.5,2.4,25,180,> 2500,,9800,
"COc1cc(NC(C(=O)N2CCc3cc(OC)c(OC(F)(F)F)cc32)c2ccc(Cl)cc2OCCO)cc(-n2cncn2)c1 (single isomer, unassigned) [Compound 8A]",1.5,2,,15,56,,12000,,0.38
"COc1cc(NC(C(=O)N2CCc3cc(F)c(C(F)(F)F)cc32)c2ccc(Cl)cc2OCCO)cc(-n2cncn2)c1 (single isomer, unassigned) [Compound 7B]",1.8,0.88,1.9,13,120,,,7600,
